Results as given in ChEMBL document CHEMBL5678818, “Discovery of potent SOS1 inhibitors that block RAS activation via disruption of the RAS-SOS1 interaction” (Proc Natl Acad Sci U S A, 2019).

How the values were obtained:
[1] = molecular target: T1, Serine/threonine-protein kinase LATS2 (Homo sapiens) (UniProt Q9NRM7); assay: Inhibition of LATS2 (unknown origin) assessed as residual activity at 100 nM by KINOMEscan analysis relative to control
T1 sequence (whole entry): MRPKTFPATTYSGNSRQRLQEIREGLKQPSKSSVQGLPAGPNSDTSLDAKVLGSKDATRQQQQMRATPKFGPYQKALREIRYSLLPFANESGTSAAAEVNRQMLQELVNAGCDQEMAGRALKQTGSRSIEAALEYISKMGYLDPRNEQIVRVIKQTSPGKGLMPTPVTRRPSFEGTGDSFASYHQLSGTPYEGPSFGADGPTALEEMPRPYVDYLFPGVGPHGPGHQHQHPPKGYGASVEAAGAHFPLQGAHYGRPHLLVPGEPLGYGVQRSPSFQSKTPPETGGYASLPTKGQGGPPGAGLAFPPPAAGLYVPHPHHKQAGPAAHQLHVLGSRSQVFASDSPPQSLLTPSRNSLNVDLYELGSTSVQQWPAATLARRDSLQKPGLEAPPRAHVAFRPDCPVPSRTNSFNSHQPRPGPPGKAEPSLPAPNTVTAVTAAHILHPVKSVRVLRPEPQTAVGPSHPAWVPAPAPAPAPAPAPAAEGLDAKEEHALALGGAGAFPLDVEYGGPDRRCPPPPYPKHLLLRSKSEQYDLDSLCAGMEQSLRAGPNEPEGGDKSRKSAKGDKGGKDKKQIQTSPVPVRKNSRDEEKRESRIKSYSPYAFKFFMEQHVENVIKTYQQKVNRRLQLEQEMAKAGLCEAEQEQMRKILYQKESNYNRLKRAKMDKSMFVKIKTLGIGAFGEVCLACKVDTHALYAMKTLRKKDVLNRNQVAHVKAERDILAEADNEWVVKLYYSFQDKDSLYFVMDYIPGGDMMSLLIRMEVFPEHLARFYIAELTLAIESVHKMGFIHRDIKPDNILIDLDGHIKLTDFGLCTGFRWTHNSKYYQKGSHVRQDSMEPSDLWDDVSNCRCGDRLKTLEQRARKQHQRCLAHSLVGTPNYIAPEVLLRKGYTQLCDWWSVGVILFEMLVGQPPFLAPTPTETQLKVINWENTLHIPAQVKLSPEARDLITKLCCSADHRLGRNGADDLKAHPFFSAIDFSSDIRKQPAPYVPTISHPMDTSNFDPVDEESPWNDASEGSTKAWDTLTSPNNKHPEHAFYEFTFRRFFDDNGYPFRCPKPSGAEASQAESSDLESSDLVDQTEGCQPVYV

[2] = molecular target: Serine/threonine-protein kinase 10 (Homo sapiens) (UniProt O94804); assay: Inhibition of LOK (unknown origin) assessed as residual activity at 100 nM by KINOMEscan analysis relative to control
[3] = molecular target: T2, Tyrosine-protein kinase JAK3 (Homo sapiens) (UniProt P52333); assay: Inhibition of JAK3 JH1 catalytic domain (unknown origin) assessed as residual activity at 100 nM by KINOMEscan analysis relative to control
T2 sequence (whole entry): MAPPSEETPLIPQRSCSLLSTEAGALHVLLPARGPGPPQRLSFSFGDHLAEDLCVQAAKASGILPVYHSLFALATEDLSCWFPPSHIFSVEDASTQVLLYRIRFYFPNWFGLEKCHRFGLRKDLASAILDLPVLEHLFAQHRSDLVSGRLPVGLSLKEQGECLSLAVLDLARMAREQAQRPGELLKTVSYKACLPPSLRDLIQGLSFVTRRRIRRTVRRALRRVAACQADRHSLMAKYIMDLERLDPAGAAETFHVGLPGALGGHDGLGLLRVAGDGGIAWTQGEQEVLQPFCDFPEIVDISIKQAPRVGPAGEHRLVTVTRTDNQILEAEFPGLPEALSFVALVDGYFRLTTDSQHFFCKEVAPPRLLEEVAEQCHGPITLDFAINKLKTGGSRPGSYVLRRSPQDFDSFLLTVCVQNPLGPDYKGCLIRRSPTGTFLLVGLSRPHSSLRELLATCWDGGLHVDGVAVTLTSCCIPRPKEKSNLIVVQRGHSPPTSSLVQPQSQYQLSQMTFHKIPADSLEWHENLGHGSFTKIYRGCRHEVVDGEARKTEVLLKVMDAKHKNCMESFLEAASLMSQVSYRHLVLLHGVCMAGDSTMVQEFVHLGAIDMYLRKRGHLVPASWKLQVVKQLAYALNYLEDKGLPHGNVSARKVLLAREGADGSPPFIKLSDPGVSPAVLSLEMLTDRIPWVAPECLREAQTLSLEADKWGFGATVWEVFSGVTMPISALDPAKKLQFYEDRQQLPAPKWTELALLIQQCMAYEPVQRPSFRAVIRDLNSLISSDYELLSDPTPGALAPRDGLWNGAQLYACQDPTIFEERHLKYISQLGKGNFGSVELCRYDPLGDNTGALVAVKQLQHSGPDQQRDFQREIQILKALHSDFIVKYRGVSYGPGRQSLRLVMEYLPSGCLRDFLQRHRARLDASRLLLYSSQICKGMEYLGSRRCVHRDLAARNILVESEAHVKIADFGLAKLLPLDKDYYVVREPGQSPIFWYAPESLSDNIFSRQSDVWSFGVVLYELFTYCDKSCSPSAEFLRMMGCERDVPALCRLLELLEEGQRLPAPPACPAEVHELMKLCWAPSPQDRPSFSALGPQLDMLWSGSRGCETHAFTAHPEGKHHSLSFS

[4] = molecular target: Cyclin-dependent kinase 13 (Homo sapiens) (UniProt Q14004); assay: Inhibition of CDC2L5 (unknown origin) assessed as residual activity at 100 nM by KINOMEscan analysis relative to control
[5] = molecular target: Cyclin-dependent kinase 11B (Homo sapiens) (UniProt P21127); assay: Inhibition of CDC2L1 (unknown origin) assessed as residual activity at 100 nM by KINOMEscan analysis relative to control
Cyclin-dependent kinase 11B (Homo sapiens), sequence (P21127 whole entry): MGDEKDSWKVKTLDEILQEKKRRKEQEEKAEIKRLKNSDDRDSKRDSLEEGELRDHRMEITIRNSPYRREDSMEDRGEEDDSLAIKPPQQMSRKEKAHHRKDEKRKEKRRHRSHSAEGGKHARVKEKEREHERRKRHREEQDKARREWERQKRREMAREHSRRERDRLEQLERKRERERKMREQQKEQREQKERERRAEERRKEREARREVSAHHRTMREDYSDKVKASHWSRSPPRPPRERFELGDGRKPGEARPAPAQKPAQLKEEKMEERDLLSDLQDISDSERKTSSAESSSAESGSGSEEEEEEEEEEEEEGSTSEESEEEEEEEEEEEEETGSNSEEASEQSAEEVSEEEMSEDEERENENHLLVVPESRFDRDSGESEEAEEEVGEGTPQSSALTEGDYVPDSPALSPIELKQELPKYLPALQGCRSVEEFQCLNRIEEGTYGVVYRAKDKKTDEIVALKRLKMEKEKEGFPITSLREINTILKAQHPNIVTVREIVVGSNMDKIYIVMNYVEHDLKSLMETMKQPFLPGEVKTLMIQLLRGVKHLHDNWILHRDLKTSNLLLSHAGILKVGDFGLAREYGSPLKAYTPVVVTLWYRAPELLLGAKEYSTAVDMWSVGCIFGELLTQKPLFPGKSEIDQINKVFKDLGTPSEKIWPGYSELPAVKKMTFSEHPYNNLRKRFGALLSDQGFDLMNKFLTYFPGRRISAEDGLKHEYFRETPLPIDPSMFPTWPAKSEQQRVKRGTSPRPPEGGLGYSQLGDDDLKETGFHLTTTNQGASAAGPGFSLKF

Serine/threonine-protein kinase 10 (Homo sapiens), sequence (O94804 whole entry, looked up, the tested form may be a part): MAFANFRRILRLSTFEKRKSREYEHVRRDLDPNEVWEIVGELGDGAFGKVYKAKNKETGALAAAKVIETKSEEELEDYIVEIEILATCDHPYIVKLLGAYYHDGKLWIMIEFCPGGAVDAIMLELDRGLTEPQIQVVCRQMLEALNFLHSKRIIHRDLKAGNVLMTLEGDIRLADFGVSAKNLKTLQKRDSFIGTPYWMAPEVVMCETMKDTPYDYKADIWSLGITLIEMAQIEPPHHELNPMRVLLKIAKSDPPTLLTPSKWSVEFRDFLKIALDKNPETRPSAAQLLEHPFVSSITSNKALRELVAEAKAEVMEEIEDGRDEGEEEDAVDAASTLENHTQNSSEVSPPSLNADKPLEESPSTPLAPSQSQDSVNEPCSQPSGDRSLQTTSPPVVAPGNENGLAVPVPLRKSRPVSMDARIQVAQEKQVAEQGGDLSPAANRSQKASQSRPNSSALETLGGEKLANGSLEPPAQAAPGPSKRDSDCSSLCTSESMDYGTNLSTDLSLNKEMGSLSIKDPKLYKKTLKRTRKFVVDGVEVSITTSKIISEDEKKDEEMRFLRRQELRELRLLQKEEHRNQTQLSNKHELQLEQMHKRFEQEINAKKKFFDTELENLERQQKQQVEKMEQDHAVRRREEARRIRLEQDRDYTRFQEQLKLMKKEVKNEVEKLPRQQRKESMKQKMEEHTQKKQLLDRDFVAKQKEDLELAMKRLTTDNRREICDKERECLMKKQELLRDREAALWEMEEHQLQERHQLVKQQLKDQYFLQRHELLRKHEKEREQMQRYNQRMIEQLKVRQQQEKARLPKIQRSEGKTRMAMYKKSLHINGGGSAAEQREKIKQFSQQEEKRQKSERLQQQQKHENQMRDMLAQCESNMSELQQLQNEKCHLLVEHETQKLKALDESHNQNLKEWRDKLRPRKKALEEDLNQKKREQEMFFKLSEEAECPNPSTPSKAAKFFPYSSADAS
Cyclin-dependent kinase 13 (Homo sapiens), sequence (Q14004 whole entry, looked up): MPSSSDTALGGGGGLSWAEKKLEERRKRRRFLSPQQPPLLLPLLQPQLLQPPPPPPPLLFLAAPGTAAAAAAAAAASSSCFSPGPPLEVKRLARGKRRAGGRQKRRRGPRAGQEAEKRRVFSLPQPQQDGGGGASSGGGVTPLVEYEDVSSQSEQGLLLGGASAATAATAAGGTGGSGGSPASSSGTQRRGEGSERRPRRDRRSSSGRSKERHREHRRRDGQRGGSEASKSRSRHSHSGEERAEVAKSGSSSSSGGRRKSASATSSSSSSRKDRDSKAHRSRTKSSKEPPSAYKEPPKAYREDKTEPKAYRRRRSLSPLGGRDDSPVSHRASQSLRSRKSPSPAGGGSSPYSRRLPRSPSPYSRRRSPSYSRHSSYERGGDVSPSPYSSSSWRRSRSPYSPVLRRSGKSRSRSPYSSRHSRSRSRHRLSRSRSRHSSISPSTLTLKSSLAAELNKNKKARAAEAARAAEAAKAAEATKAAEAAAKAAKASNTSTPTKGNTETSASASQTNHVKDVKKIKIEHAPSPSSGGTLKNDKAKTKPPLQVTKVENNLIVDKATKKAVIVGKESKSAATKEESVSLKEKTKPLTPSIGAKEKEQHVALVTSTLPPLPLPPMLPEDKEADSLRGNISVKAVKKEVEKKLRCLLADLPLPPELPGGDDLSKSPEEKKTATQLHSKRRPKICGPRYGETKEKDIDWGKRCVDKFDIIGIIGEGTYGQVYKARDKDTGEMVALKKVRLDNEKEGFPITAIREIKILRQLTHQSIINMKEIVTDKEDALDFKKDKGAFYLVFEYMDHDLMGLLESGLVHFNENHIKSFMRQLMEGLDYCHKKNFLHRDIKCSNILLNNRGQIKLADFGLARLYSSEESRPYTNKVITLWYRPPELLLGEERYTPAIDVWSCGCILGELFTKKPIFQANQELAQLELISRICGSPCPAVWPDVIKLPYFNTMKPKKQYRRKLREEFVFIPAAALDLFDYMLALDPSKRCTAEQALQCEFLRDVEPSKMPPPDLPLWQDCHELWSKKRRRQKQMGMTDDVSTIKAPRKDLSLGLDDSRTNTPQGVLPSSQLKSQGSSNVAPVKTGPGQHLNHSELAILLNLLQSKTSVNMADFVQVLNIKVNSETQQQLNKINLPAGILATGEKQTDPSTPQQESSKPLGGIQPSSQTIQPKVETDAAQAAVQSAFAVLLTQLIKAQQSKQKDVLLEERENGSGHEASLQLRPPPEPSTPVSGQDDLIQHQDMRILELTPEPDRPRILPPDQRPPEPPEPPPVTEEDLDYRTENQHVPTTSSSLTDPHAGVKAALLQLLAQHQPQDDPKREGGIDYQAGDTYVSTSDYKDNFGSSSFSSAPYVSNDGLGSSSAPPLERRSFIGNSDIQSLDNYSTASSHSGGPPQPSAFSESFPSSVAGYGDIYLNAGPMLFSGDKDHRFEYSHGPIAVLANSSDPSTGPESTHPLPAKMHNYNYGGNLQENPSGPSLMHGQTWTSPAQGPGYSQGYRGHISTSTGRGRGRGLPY

Work on `COc1cc2ncnc(N[C@H](C)c3cccc4ccccc34)c2cc1OC` yielded an Activity [1] of 87%, an Activity [2] of 98% and an Activity [3] of 84%. It also gave an Activity [4] of 92% and an Activity [5] of 82%.
